# Laboratory results: ChEMBL document CHEMBL1201862, “PubChem BioAssay data set” (2004)
#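 Compound exposure: 48 hours, 5 concentrations, 96-well plates. GI50: concentration for 50% inhibition of growth.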 Activity calls are given as the source filed them. Rule as the data show it: active = GI50 up to about 1.1 µM and inactive = higher.
# Key:
# Experiment in all cases: NCI anticancer screen, dose series, 48 h
# SF-268 = tested on: SF-268
# NCI-H226 = tested on: NCI-H226
# SW-620 = tested on: SW-620
# MDA-MB-435 = tested on: MDA-MB-435
# 786-0 = tested on: 786-0
# HOP-92 = tested on: HOP-92
# COLO 205 = tested on: COLO 205
# HCC 2998 = tested on: HCC 2998
# TK-10 = tested on: TK-10
# RPMI-8226 = tested on: RPMI-8226
# OVCAR-4 = tested on: OVCAR-4
# HCT-15 = tested on: HCT-15
# HOP-62 = tested on: HOP-62
# UACC-257 = tested on: UACC-257
# DU-145 = tested on: DU-145
# BT-549 = tested on: BT-549
# Hs-578T = tested on: Hs-578T
# PC-3 = tested on: PC-3
# SNB-75 = tested on: SNB-75
SMILES,GI50 (SF-268),GI50 (NCI-H226),GI50 (SW-620),GI50 (MDA-MB-435),GI50 (786-0),GI50 (HOP-92),GI50 (COLO 205),GI50 (HCC 2998),GI50 (TK-10),GI50 (RPMI-8226),GI50 (OVCAR-4),GI50 (HCT-15) [µM],GI50 (HOP-62),GI50 (UACC-257),GI50 (DU-145),GI50 (BT-549),GI50 (Hs-578T),GI50 (PC-3),GI50 (SNB-75)
COc1cccc(C2CC(=O)c3cc(N4CCCC4)ccc3N2)c1 (stereo not drawn),0.0692 µM (active),0.0385 µM (active),0.0243 µM (active),0.00794 µM (active),0.0404 µM (active),0.348 µM (active),0.0365 µM (active),0.0475 µM (active),1.21 µM (inactive),0.0492 µM (active),23.3 µM (inactive),0.0335,1.75 µM (inactive),0.01 µM (active),0.0344 µM (active),0.0843 µM (active),0.01 µM (active),0.022 µM (active),
Clc1ccc(-c2nc3cc(C45CC6CC(CC(C6)C4)C5)ccc3[nH]2)cc1,> 100 µM (inactive),> 65 µM (inactive),19.3 µM (inactive),36.1 µM (inactive),39.4 µM (inactive),17.7 µM (inactive),7.43 µM (inactive),31.7 µM (inactive),40.2 µM (inactive),4.21 µM (inactive),60.5 µM (inactive),9.46,37.8 µM (inactive),10.7 µM (inactive),54 µM (inactive),56.6 µM (inactive),62.7 µM (inactive),14.3 µM (inactive),> 100 µM (inactive)
COC(CN(C(C)=O)C1CCC2(SCCS2)c2[nH]c3ccccc3c21)OC (stereo not drawn),> 100 µM (inactive),> 100 µM (inactive),> 100 µM (inactive),> 100 µM (inactive),> 100 µM (inactive),> 100 µM (inactive),> 100 µM (inactive),> 100 µM (inactive),> 100 µM (inactive),> 100 µM (inactive),62.7 µM (inactive),> 100,> 100 µM (inactive),0.773 µM (active),> 100 µM (inactive),> 100 µM (inactive),54.6 µM (inactive),> 100 µM (inactive),> 100 µM (inactive)
CC(O)/C=C/C1OC(=O)CC1Nc1ccc(C=O)cc1 (stereo not drawn),> 100 µM (inactive),> 100 µM (inactive),> 100 µM (inactive),> 100 µM (inactive),> 100 µM (inactive),15.3 µM (inactive),42.9 µM (inactive),> 100 µM (inactive),> 100 µM (inactive),24.2 µM (inactive),> 100 µM (inactive),60.7,20.9 µM (inactive),48.2 µM (inactive),> 100 µM (inactive),> 100 µM (inactive),> 100 µM (inactive),> 100 µM (inactive),> 100 µM (inactive)
COc1cc(/C=C2\C(=O)N(Cc3ccccc3)C(c3ccccc3)S2(=O)=O)cc(OC)c1OC (stereo not drawn),31.3 µM (inactive),50.6 µM (inactive),79.1 µM (inactive),41.9 µM (inactive),29.6 µM (inactive),50.2 µM (inactive),21.3 µM (inactive),> 100 µM (inactive),36.1 µM (inactive),,17.5 µM (inactive),27.5,> 100 µM (inactive),26.2 µM (inactive),91.6 µM (inactive),36.3 µM (inactive),9.73 µM (inactive),43 µM (inactive),
CC(CCc1nc2ccccc2s1)(c1ccc(O)cc1)c1ccc(O)cc1,20 µM (inactive),22.3 µM (inactive),19.8 µM (inactive),16.1 µM (inactive),15.1 µM (inactive),20.1 µM (inactive),,19.7 µM (inactive),19.9 µM (inactive),,19.1 µM (inactive),18.4,17.7 µM (inactive),15.3 µM (inactive),17.1 µM (inactive),19.4 µM (inactive),20.4 µM (inactive),14.8 µM (inactive),18.4 µM (inactive)
COc1cccc(CCCNC(=O)Cc2ccccc2CO)c1,,> 100 µM (inactive),> 100 µM (inactive),> 100 µM (inactive),> 100 µM (inactive),> 100 µM (inactive),> 100 µM (inactive),> 100 µM (inactive),> 100 µM (inactive),,> 100 µM (inactive),> 100,> 100 µM (inactive),> 100 µM (inactive),> 100 µM (inactive),> 100 µM (inactive),> 100 µM (inactive),> 100 µM (inactive),> 100 µM (inactive)
COC(=O)c1ccc(NCC2=C(Br)C(=O)C=CC2=O)cc1Cl,16.8 µM (inactive),74.8 µM (inactive),16 µM (inactive),19.2 µM (inactive),13.3 µM (inactive),15.6 µM (inactive),17.8 µM (inactive),42.6 µM (inactive),16.4 µM (inactive),40.3 µM (inactive),24.4 µM (inactive),15.8,,23.8 µM (inactive),22.8 µM (inactive),13.1 µM (inactive),21.9 µM (inactive),20 µM (inactive),42.5 µM (inactive)
CC(C)(C)c1ccc2c(c1)C#Cc1cc3c(cc1OCCCO2)C#Cc1cc(C(C)(C)C)ccc1OCCCO3,> 100 µM (inactive),,> 100 µM (inactive),> 100 µM (inactive),> 100 µM (inactive),> 100 µM (inactive),> 100 µM (inactive),> 100 µM (inactive),> 100 µM (inactive),> 100 µM (inactive),> 100 µM (inactive),2.45,> 100 µM (inactive),> 100 µM (inactive),> 100 µM (inactive),1.72 µM (inactive),> 100 µM (inactive),> 100 µM (inactive),
CSc1ccc(/C=C2\N=C(c3ccccc3)N(c3nc4cc(Cl)c(F)cc4s3)C2=O)cc1,32.3 µM (inactive),,71.8 µM (inactive),33 µM (inactive),63.1 µM (inactive),42 µM (inactive),54.5 µM (inactive),99.5 µM (inactive),> 100 µM (inactive),26.1 µM (inactive),24.7 µM (inactive),76.9,25.2 µM (inactive),> 100 µM (inactive),50 µM (inactive),32.8 µM (inactive),21.7 µM (inactive),35.2 µM (inactive),25 µM (inactive)
O=C(O)CSCc1cc2c(O)c(c1)Cc1cc(CSCC(=O)O)cc(c1O)Cc1cc(CSCC(=O)O)cc(c1O)Cc1cc(CSCC(=O)O)cc(c1O)C2,> 100 µM (inactive),89.5 µM (inactive),> 100 µM (inactive),61.1 µM (inactive),> 100 µM (inactive),> 100 µM (inactive),> 100 µM (inactive),> 100 µM (inactive),> 100 µM (inactive),> 100 µM (inactive),> 100 µM (inactive),> 100,> 100 µM (inactive),> 100 µM (inactive),> 100 µM (inactive),29 µM (inactive),> 100 µM (inactive),> 100 µM (inactive),
O=C(N[C@H]1CCC[C@H]1C(=O)Nc1ccc(C(F)(F)F)cc1)OCc1ccccc1,> 100 µM (inactive),65.3 µM (inactive),> 100 µM (inactive),> 100 µM (inactive),> 100 µM (inactive),> 100 µM (inactive),> 100 µM (inactive),> 100 µM (inactive),> 100 µM (inactive),> 100 µM (inactive),> 100 µM (inactive),> 100,> 100 µM (inactive),> 100 µM (inactive),> 100 µM (inactive),> 100 µM (inactive),88.5 µM (inactive),> 100 µM (inactive),
Cc1c(Cc2ccccc2)n(C(C)OCCN(OC(=O)Oc2ccccc2)C(=O)Oc2ccccc2)c(=O)[nH]c1=O (stereo not drawn),14.7 µM (inactive),,20.7 µM (inactive),23.4 µM (inactive),18.3 µM (inactive),13.5 µM (inactive),18.3 µM (inactive),17.3 µM (inactive),,24.2 µM (inactive),19.7 µM (inactive),14.6,18.1 µM (inactive),15 µM (inactive),28.5 µM (inactive),17.1 µM (inactive),12.9 µM (inactive),21.9 µM (inactive),1.61 µM (inactive)
CC(=O)O[C@H]1[C@@H]2OC(=O)[C@@](O)(CC3CCCO3)[C@@H]2CC(=O)[C@](C)(O)CC/C=C(\C)CCC[C@@H]1C (stereo partly drawn),> 100 µM (inactive),15.6 µM (inactive),22.5 µM (inactive),31.7 µM (inactive),37.9 µM (inactive),28.2 µM (inactive),18.6 µM (inactive),> 100 µM (inactive),40.8 µM (inactive),26.2 µM (inactive),52.8 µM (inactive),34.3,,70.3 µM (inactive),37.8 µM (inactive),26.2 µM (inactive),63.4 µM (inactive),36.5 µM (inactive),97.5 µM (inactive)
Nc1nc(NCC2(CO)CC2)cc(=O)[nH]1,> 100 µM (inactive),> 100 µM (inactive),> 100 µM (inactive),> 100 µM (inactive),> 100 µM (inactive),> 100 µM (inactive),> 100 µM (inactive),> 100 µM (inactive),,> 100 µM (inactive),> 100 µM (inactive),> 100,> 100 µM (inactive),> 100 µM (inactive),> 100 µM (inactive),> 100 µM (inactive),> 100 µM (inactive),> 100 µM (inactive),> 100 µM (inactive)
